Measurements reported in patent EP2508526A1, “Spiroalkene carboxamide derivatives and their use as chemokine receptor modulators” (Ares Trading SA, priority 2011, dated 2012).
Counter-ions that a name gives are not always drawn.

target: T1, hCCR2b (Homo sapiens, UniProt P41597); test: CCR2 binding assay ([125I]MCP-1, SPA, CHO cell membranes); design: expressed in transfected cells; host or cells: CHO cells (membrane preparation); conditions: membranes from CHO cells expressing hCCR2b, 50 pM [125I]MCP-1; read-out: Binding hCCR2 (Ki)
T1 sequence (P41597 1-360 isoform P41597-2): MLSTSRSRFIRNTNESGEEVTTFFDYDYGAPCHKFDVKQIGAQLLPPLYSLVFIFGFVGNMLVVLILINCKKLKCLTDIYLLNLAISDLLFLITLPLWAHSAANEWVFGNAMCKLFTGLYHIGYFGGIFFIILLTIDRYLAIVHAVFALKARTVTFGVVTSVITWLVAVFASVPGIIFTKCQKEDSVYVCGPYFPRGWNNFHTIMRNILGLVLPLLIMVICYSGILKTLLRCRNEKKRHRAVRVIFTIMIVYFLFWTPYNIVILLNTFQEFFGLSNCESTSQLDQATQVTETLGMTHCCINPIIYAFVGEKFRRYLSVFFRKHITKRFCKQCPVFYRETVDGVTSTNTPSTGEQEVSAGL
How it was run: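 CHO membranes expressing hCCR2b (1–5 µg/well) with 50 pM [125I]MCP-1 and WGA SPA beads in 50 mM HEPES pH 7.4, 5 mM MgCl2, 1 mM CaCl2, 0.1% BSA, 1% DMSO; 90 min RT with agitation. Bound counts on scintillation counter; nonspecific defined by 1000-fold excess unlabeled compound.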

SMILES | Ki
CC1=C(C(=O)N2CCc3ccc(C(F)(F)F)cc3C2)C2(CCN(C3CCCS(=O)(=O)C3)CC2)OC1=O (stereo not shown) [Compound 39, 8-(1,1-dioxidotetrahydro-2H-thiopyran-3-yl)-3-methyl-4-{[7-(trifluoromethyl)-3,4-dihydroisoquinolin-2(1H)-yl]carbonyl}-1-oxa-8-azaspiro[4.5]dec-3-en-2-one] | 50 to 100 nM
CCN1CCC2(CC1)OC(=O)C(C)=C2C(=O)Nc1cnn(-c2ccc(C(F)(F)F)cc2)c1 [Compound 67, 8-ethyl-3-methyl-2-oxo-N-{1-[4-(trifluoromethyl)phenyl]-1H-pyrazol-4-yl}-1-oxa-8-azaspiro[4.5]dec-3-ene-4-carboxamide] | 500 to 2000 nM
CC1=C(C(=O)N2CCN(c3cccc(C(F)(F)F)c3)CC2)C2(CCN(C3CCCOC3)CC2)OC1=O (stereo not shown) [Compound 23] | < 50 nM
CC1=C(C(=O)N2CCN(c3cccc(C(F)(F)F)c3)CC2)C2(CCN(CCc3cccc(Cl)c3)CC2)OC1=O [Compound 15, 8-[2-(3-chlorophenyl)ethyl]-3-methyl-4-({4-[3-(trifluoromethyl)phenyl]piperazin-1-yl}carbonyl)-1-oxa-8-azaspiro[4.5]dec-3-en-2-one] | < 50 nM
CC1=C(C(=O)N2CCc3ncc(C(F)(F)F)cc3C2)C2(CCNCC2)OC1=O [Compound 78, 3-methyl-4-{[3-(trifluoromethyl)-7,8-dihydro-1,6-naphthyridin-6(5H)-yl]carbonyl}-1-oxa-8-azaspiro[4.5]dec-3-en-2-one, hydrocloride salt] | 100 to 500 nM
COC1COCCC1N1CCC2(CC1)OC(=O)C(C)=C2C(=O)N1CCc2ccc(C(F)(F)F)cc2C1 (single isomer, unassigned; (+)) [Compound 41, (+)-1,5-anhydro-3,4-dideoxy-2-O-methyl-3-(3-methyl-2-oxo-4-{[7-(trifluoromethyl)-3,4-dihydroisoquinolin-2(1H)-yl]carbonyl}-1-oxa-8-azaspiro[4.5]dec-3-en-8-yl)-pentitol] | < 50 nM
CC1=C(C(=O)NCC(=O)Nc2cccc(C(F)(F)F)c2)C2(CCN(C3CCOCC3)CC2)OC1=O [Compound 69, 3-methyl-2-oxo-N-(2-oxo-2-{[3-(trifluoromethyl)phenyl]amino}ethyl)-8-(tetrahydro-2H-pyran-4-yl)-1-oxa-8-azaspiro[4.5]dec-3-ene-4-carboxamide] | < 50 nM
CCN1CCC2(CC1)OC(=O)C(C)=C2C(=O)N1CCN(c2cc(Cl)cc(C(F)(F)F)c2)CC1 [Compound 86, 4-({4-[3-chloro-5-(trifluoromethyl)phenyl]piperazin-1-yl}carbonyl)-8-ethyl-3-methyl-1-oxa-8-azaspiro[4.5]dec-3-en-2-one] | < 50 nM
CC1=C(C(=O)N2CCN(c3cccc(C(F)(F)F)c3)CC2)C2(CCN(CC(=O)O)CC2)OC1=O [Compound 9, [3-methyl-2-oxo-4-({4-[3-(trifluoromethyl)phenyl]piperazin-1-yl}carbonyl)-1-oxa-8-azaspiro[4.5]dec-3-en-8-yl]acetic acid] | 100 to 500 nM
CCN1CCCC2(CC1)OC(=O)C(C)=C2C(=O)N1CCN(c2cccc(C(F)(F)F)c2)CC1 (stereo not shown) [Compound 121, 8-ethyl-3-methyl-4-({4-[3-(trifluoromethyl)phenyl]piperazin-1-yl}carbonyl)-1-oxa-8-azaspiro[4.6]undec-3-en-2-one] | < 50 nM
CC1=C(C(=O)N2CCN(c3cccc(C(F)(F)F)c3)CC2)C2(CCNCC2)OC1=O [Example 1, 3-methyl-4-({4-[3-(trifluoromethyl)phenyl]piperazin-1-yl}carbonyl)-1-oxa-8-azaspiro[4.5]dec-3-en-2-one, dihydrochloride salt] | 100 to 500 nM
CCN1CCC2(CC1)OC(=O)C(C)=C2C(=O)N1CCc2ncc(C(F)(F)F)cc2C1 [Compound 85, 8-ethyl-3-methyl-4-{[3-(trifluoromethyl)-7,8-dihydro-1,6-naphthyridin-6(5H)-yl]carbonyl}-1-oxa-8-azaspiro[4.5]dec-3-en-2-one] | < 50 nM
CCN1CCC2(CC1)OC(=O)C(C)=C2C(=O)NCCc1ccc(C(F)(F)F)cc1 [Compound 100, 8-ethyl-3-methyl-2-oxo-N-{2-[4-(trifluoromethyl)phenyl]ethyl}-1-oxa-8-azaspiro[4.5]dec-3-ene-4-carboxamide] | 500 to 2000 nM
CC1=C(C(=O)N2CCN(c3cccc(C(F)(F)F)c3)CC2)C2(CCN(C3CCCCC3)CC2)OC1=O [Compound 106, 8-cyclohexyl-3-methyl-4-({4-[3-(trifluoromethyl)phenyl]piperazin-1-yl}carbonyl)-1-oxa-8-azaspiro[4.5]dec-3-en-2-one] | < 50 nM
CC1=C(C(=O)N2CCc3ccc(C(F)(F)F)cc3C2)C2(CCN(C3CCC(O)CC3)CC2)OC1=O (stereo not shown) [Compound 31, 8-(4-hydroxycyclohexyl)-3-methyl-4-{[7-(trifluoromethyl)-3,4-dihydroisoquinolin-2(1H)-yl]carbonyl}-1-oxa-8-azaspiro[4.5]dec-3-en-2-one] | < 50 nM
CC1=C(C(=O)N2CCN(c3cccc(C#N)c3)CC2)C2(CCN(Cc3ccccc3)CC2)OC1=O [Compound 111, 3-{4-[(8-benzyl-3-methyl-2-oxo-1-oxa-8-azaspiro[4.5]dec-3-en-4-yl)carbonyl]piperazin-1-yl}benzonitrile] | 500 to 2000 nM
CCN1CCC2(CC1)OC(=O)C(C)=C2C(=O)N1CCCN(c2ccc(C(F)(F)F)cc2)CC1 [Compound 91, 8-ethyl-3-methyl-4-({4-[4-(trifluoromethyl)phenyl]-1,4-diazepan-1-yl}carbonyl)-1-oxa-8-azaspiro[4.5]dec-3-en-2-one] | 100 to 500 nM
CCN1CCC2(CC1)OC(=O)C(C)=C2C(=O)N1CCC(Nc2ccc(C(F)(F)F)cc2)C1 (stereo not shown) [Compound 83, 8-ethyl-3-methyl-4-[(3-{[4-(trifluoromethyl)phenyl]amino}pyrrolidin-1-yl)carbonyl]-1-oxa-8-azaspiro[4.5]dec-3-en-2-one] | < 50 nM
CC1=C(C(=O)N2CCc3ncc(C(F)(F)F)cc3C2)C2(CCN(C3CCC(O)CC3)CC2)OC1=O (stereo not shown) [Compound 45, 8-(4-hydroxycyclohexyl)-3-methyl-4-{[3-(trifluoromethyl)-7,8-dihydro-1,6-naphthyridin-6(5H)-yl]carbonyl}-1-oxa-8-azaspiro[4.5]dec-3-en-2-one] | < 50 nM
CC1=C(C(=O)N2CCc3ccc(C(F)(F)F)cc3C2)C2(CCN(C3COC3)CC2)OC1=O [Compound 32, 3-methyl-8-oxetan-3-yl-4-{[7-(trifluoromethyl)-3,4-dihydroisoquinolin-2(1H)-yl]carbonyl}-1-oxa-8-azaspiro[4.5]dec-3-en-2-one] | 50 to 100 nM
CC1=C(C(=O)N2CCN(c3cccc(Cl)c3)CC2)C2(CCN(Cc3ccccc3)CC2)OC1=O [Compound 110, 8-benzyl-4-{[4-(3-chlorophenyl)piperazin-1-yl]carbonyl}-3-methyl-1-oxa-8-azaspiro[4.5]dec-3-en-2-one] | 500 to 2000 nM
CC1=C(C(=O)N2CCc3ccc(C(F)(F)F)cc3C2)C2(CCN(C3CCOC(C)(C)C3)CC2)OC1=O (stereo not shown) [Compound 35, 8-(2,2-dimethyltetrahydro-2H-pyran-4-yl)-3-methyl-4-{[7-(trifluoromethyl)-3,4-dihydroisoquinolin-2(1H)-yl]carbonyl}-1-oxa-8-azaspiro[4.5]dec-3-en-2-one] | < 50 nM
